Where two headings read alike, the source gives them in different places.
Experiments:
[1] = Effect of formulation pH on flux, Franz-diffusion cell, nylon membrane; format: in vitro ADME; details: for Total flux: Mepivacaine 10% w/w, HPMC K4M 3% gel
Experimental: The influence of pH on the permeability of mepivacaine HCl from a variety of gel dosage forms was evaluated. The in-vitro drug release from gel formulations was studied across the Nylon 6, 6 membrane (0.22 μm) using Franz-diffusion cell with effective surface area of 3.14 cm^2 and receptor cell volume of 18 mL. The receptor compartment was filled with PBS pH 6.8 and maintained at 37±0.5° C. with constant magnetic stirring. 0.3-0.5 gm of gel was placed on the donor compartment. The samples (1 mL) were collected from the receptor compartment (dilutions made if required) at predetermined time interval for a period of 6-8 h and replaced by equal volume of fresh receptor solution to maintain constant volume. The amount of drug in the samples was assayed spectrophotometrically at 263 nm against appropriate blank. Studies were carried using HPMC K4M 3% as gelling agent with or without containing carvone (0.5%) as a penetration enhancer, so as to assess the effects of pH per se and pH in the presence of penetration enhancers. When Carbopol 3% was used as gelling agent, it gets precipitated out at pH below 5. HPMC gel formulations at pH 8.5 result in precipitation of mepivacaine from the gel. […] The maximum flux was obtained at pH 7.5.

[2] = in vivo; cited from earlier work
[3] = tested on: isolated dorsal root ganglion neurons from chick embryos; details: cited from earlier work
[4] = in vivo; cited from earlier work; remark: listed apart in the source
[5] = Solubility of mepivacaine base in formulation solvents; format: physicochemical; details: 2.5 g in 2.5 g of propylene glycol
From the text: 2.5 g Mepivacaine base was suspended in 2.5 g of propylene glycol.

[6] = cited from earlier work
[7] = tested on: gp120 model of painful HIV-associated peripheral neuropathy; assay: Thermal hyperalgesia (hind paw withdrawal latency), gp120 model; format: in vivo, rat; details: for thermal hyperalgesia, difference from control: p ≤0.05
From the text: (§1) This study evaluated the effects of topical mepivacaine in DMSO painful HIV-associated peripheral neuropathy. HIV peripheral neuropathy in the rat was induced by sciatic nerve exposure to gp120.
(§2) Under anesthesia, the left sciatic nerve of male rats was isolated by blunt dissection of the biceps, without damaging the perineurium. The HIV-1 viral envelope protein, gp120 was embedded in a carrier matrix and delivered directly to the sciatic nerve. The muscular layer was closed using 3-0 silk and the skin sealed with veterinarian-grade cyanoacrylate.
(§3) A gauze pad was saturated with either mepivacaine in DMSO (vehicle) or vehicle alone and secured to the left plantar hind paw for 5 min. Rats were immediately tested after removal of the pad. Rats were then tested again at 5, 10 and 15 minutes after removal of the pad. Mepivacaine was tested at various concentrations. The treatment assignment was masked. A period of 48 hrs was allowed between retesting of the rats. The continued presence of hyperalgesia in the rats was confirmed by pre-drug application baseline testing on each test day.
(§4) Plantar hind paw response to noxious heat and pressure application was evaluated before and one week following sciatic nerve surgery to confirm onset of hyperalgesia following gp120 administration. Following 15-20 min acclimation in the test chamber, a thermal heat stimulus was aimed at the mid-plantar hind paw as rats stand on a glass surface. The latency to a withdrawal response was recoded electronically. The stimulus intensity was adjusted to result in mean pre-surgical baseline latencies of approximately 12 seconds. Each hind paw was tested once to obtain a hind paw withdrawal latency. Mechanical allodynia was assessed by application of increasing pressure (32 g/sec) to the plantar hind paw over time. The withdrawal threshold (measured in grams) was reached when the rat withdrew its paw from the apparatus. The pre-surgical withdrawal threshold of naïve rats was about 175 g. Each hind paw was tested once to obtain a hind paw withdrawal threshold. Antinociception, or analgesia, was defined quantally as an increase in response over baseline.
(§5) Statistical analysis for thermal hyperalgesia and mechanical allodynia were performed and statistical significance was declared if the two-sided p-value was ≤0.05. All computations were performed using SigmaStat™ for Windows™, Version 3.5.

[8] = tested on: gp120 model of painful HIV-associated peripheral neuropathy; assay: Mechanical allodynia (hind paw withdrawal threshold), gp120 model; format: in vivo, rat; details: for mechanical allodynia, difference from control: p ≤0.05
From the text: as §1, §2, §3, §4, §5

tail-flick model = assay: Tail-flick assay; format: in vivo, mice; details: for tail-flick latency, difference from control: p ≤0.05
Experimental: This study evaluated the effects of topical in DMSO mepivacaine in the tail-flick model.
Male mice were maintained on a 12-h light/dark cycle with food and water available ad libitum. Mice were housed in groups of five until testing
Drugs were given topically in DMSO (vehicle) on the tail by immersion of the tail in treatment solution for 5 minutes. Tail-flick latencies were then determined on the region of the tail immersed in the drug, unless otherwise stated. Mice were immediately tested after removal of the tail from the treatment solution and retested at 5 and 10 minutes. Mepivacaine was tested at various concentrations. The treatment assignment was masked.
Analgesia was assessed with the tail-flick assay. Responses were measured by exposing the distal part of the tail to a thermal stimulus, and the latency of exposure was determined. The tail flick latency is the time interval between onset of the heat stimulus and withdrawal of the tail the thermal stimulus. Baseline latencies ranged from 2 to 3 s. Testing was performed immediately after termination of topical administration into the tail and at 5 and 10 minutes thereafter. Antinociception, or analgesia, was defined quantally as an increase in response over baseline.
Statistical analysis was performed and statistical significance was declared if the two-sided p-value was ≤0.05. All computations were performed using SigmaStat™ for Windows™, Version 3.5.

[9] = tested on: combined HIV viral envelope protein (gp120) and NRTI model of painful HIV-associated peripheral neuropathy; assay: Mechanical allodynia, zalcitabine plus gp120 model; format: in vivo, rat; details: for mechanical allodynia, difference from control: p ≤0.05
From the text: (§6) This study evaluated the effects of topical mepivacaine in DMSO painful HIV-associated peripheral neuropathy. HIV peripheral neuropathy in the rat was induced by sciatic nerve exposure to zalcitabine plus gp120.
as §2, with “cyanoacrylate. Rats received intravenous tail injection of zalcitabine.” for “cyanoacrylate.”
as §3
as §4, with “Each hind paw was tested once to obtain a hind paw withdrawal threshold. Antinociception, or analgesia, was defined quantally as an increase in response over baseline.” left out

[10] = tested on: combined HIV viral envelope protein (gp120) and NRTI model of painful HIV-associated peripheral neuropathy; assay: Thermal hyperalgesia, zalcitabine plus gp120 model; format: in vivo, rat; details: for thermal hyperalgesia, difference from control: p ≤0.05
From the text: as §6
as §2, with “cyanoacrylate. Rats received intravenous tail injection of zalcitabine.” for “cyanoacrylate.”
as §3
as §4, with “Each hind paw was tested once to obtain a hind paw withdrawal threshold. Antinociception, or analgesia, was defined quantally as an increase in response over baseline.” left out

rat sciatic nerve = details: cited from earlier work
postherpetic neuralgia = details: Sindrup and Jensen; cited from earlier work
[11] = topical in DMSO, pad on hind paw 5 min

In the case of `Cc1cccc(C)c1NC(=O)C1CCCCN1C.Cl` (racemic) [mepivacaine hydrochloride, 2-piperidinecarboxamide, N(2,6-dimethylphenyl)-1-methyl-, monohydrochloride], the “formulation pH at which the maximum flux was obtained” value ([1]; HPMC gels pH 4.5-7.5) is reported as 7.5.

In the case of `Cc1cccc(C)c1NC(=O)C1CCCCN1C` (stereo not drawn) [Mepivacaine, 1-methyl-2′,6′-pipecoloxylidide], the “irritation or tissue damage” value [2] is given as “does not ordinarily produce irritation or tissue damage”, the methemoglobinemia [2] is given as “does not cause methemoglobinemia” and the “IC50 in the growth cone collapse assay, rank among lidocaine, bupivacaine, mepivacaine, ropivacaine” value [3] is given as “highest”. The “administered dose excreted into the bile as metabolites” value [4] was “over 50%”, the “bound to plasma proteins” value [4] was “approximately 75%” and the “excreted unchanged in the urine” value [4] was “less than 10%”. The “solubility in propylene glycol” value [5] was “not sufficiently soluble”, the “solubility in EtOH” value [6] was 40 g/100 ml and the “thermal hyperalgesia, difference from control” value ([7]; 2 mg/mL) was “significantly different from control”. For the same compound, the “thermal hyperalgesia, difference from control” value ([7]; 4 mg/mL) was “significantly different from control”, the “thermal hyperalgesia, difference from control” value ([7]; 8 mg/mL) was “significantly different from control” and the “antinociceptive effects for thermal hyperalgesia” value [7, 11] was “short lived and variable antinociceptive effects”. The “mechanical allodynia, difference from control” value ([8]; 2 mg/mL in DMSO) was “significantly different from control”, the “mechanical allodynia, difference from control” value ([8]; 4 mg/mL in DMSO) was “significantly different from control” and the “mechanical allodynia, difference from control” value ([8]; 8 mg/mL in DMSO) was “significantly different from control”. For the same compound, the “antinociceptive effects for mechanical allodynia” value [8, 11] was “short lived and variable antinociceptive effects”, the “tail-flick latency, difference from control” value (tail-flick model; 4 mg/mL) was “significantly different from control” and the “tail-flick latency, difference from control” value (tail-flick model; 8 mg/mL) was “significantly different from control”. The “analgesia in tail-flick assay” value (tail-flick model; tail immersed 5 minutes in DMSO solution) was “short lived and variable analgesia”, the Total flux ([1]; carvone 0.5% w/w, pH 4.5) was 0.4251 mg/cm^2/hr and the Total flux ([1]; carvone 0.5% w/w, pH 5.5) was 0.5847 mg/cm^2/hr. It also gave a Total flux ([1]; carvone 0.5% w/w, pH 6.8) of 0.7245 mg/cm^2/hr, a Total flux ([1]; carvone 0.5% w/w, pH 7.5) of 0.8035 mg/cm^2/hr and a Total flux ([1]; no carvone, pH 4.5) of 0.4095 mg/cm^2/hr. For the same compound, the Total flux ([1]; no carvone, pH 5.5) was 0.6000 mg/cm^2/hr, the Total flux ([1]; no carvone, pH 6.8) was 0.7531 mg/cm^2/hr and the Total flux ([1]; no carvone, pH 7.5) was 0.7442 mg/cm^2/hr. The “mechanical allodynia, difference from control” value ([9]; 2 mg/mL) was “significantly different from control”, the “mechanical allodynia, difference from control” value ([9]; 4 mg/mL) was “significantly different from control” and the “antinociceptive effects for mechanical allodynia” value [9, 11] was “short lived and variable antinociceptive effects”. For the same compound, the “thermal hyperalgesia, difference from control” value ([10]; 2 mg/mL) was “significantly different from control”, the “thermal hyperalgesia, difference from control” value ([10]; 4 mg/mL) was “significantly different from control” and the “antinociceptive effects, section Thermal Hyperalgesia (text says mechanical allodynia)” value [10, 11] was “short lived and variable antinociceptive effects”.

For `CCCCN1CCCCC1C(=O)Nc1c(C)cccc1C` (stereo not drawn) [bupivacaine], the “neuronal damage in rat sciatic nerve” value (rat sciatic nerve; 0.75% (23.1 mM)) is listed as “do not”.

In the case of `CCN(CC)CC(=O)Nc1c(C)cccc1C` [lidocaine], the “neuronal damage in rat sciatic nerve” value (rat sciatic nerve; 80 mM (2.17%)) is listed as “induced neuronal damage” and the “IC50 in the growth cone collapse assay, rank among lidocaine, bupivacaine, mepivacaine, ropivacaine” value [3] is listed as “lowest”.

For `COc1ccc2c3c1O[C@H]1C(=O)CC[C@@]4(O)[C@@H](C2)N(C)CC[C@]314` [oxycodone], the “NNT values in postherpetic neuralgia” value (postherpetic neuralgia) is listed as 2.5.

In the case of `COc1cc(CNC(=O)CCCC/C=C/C(C)C)ccc1O` [topical capsaicin, capsaicin], the “NNT values in postherpetic neuralgia” value (postherpetic neuralgia) is listed as 5.3.

From patent US11607407B2, “Dermal pharmaceutical compositions of 1-methyl-2′,6′-pipecoloxylidide and method of use” (priority 2010, dated 2023)
